The record followed here is US20240391862A1, “(1,4,5-TRISUBSTITUTED-1H-PYRAZOL-3-YL)OXY-2-ALKOXY ALKYL ACIDS AND THEIR DERIVATIVES, THEIR SALTS AND THEIR USE AS HERBICIDAL AGENTS” (Bayer AKtiengesellschaft, priority 2021, published 2024).

Assay [1] deals with TRZAS. Nature of the assay: Post-emergence herbicidal effect and crop plant compatibility, greenhouse pot test. Particulars: Triticum aestivum, 504 h, 20 g/ha, one-leaf stage, rated visually after about 3 weeks vs untreated controls, read-out: Post-emergence effect at 20 g/ha against TRZAS in %. It counts as in vivo, Triticum aestivum. The method, boiled down: (§1)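 Greenhouse pot plants in sandy loam receive a one-leaf-stage spray at 20 to 320 g/ha. Activity is assessed visually around 3 weeks afterwards on a 0–100% scale, where 100% means the plants have died.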

The subject of assay [2] is ZEAMX. The description is as above. Particulars: Zea mays, 504 h, one-leaf stage, rated visually after about 3 weeks vs untreated controls; for plant injury at 20 g/ha: read-out: Post-emergence effect at 20 g/ha against ZEAMX in %; for plant injury at 80 g/ha: read-out: Post-emergence effect at 80 g/ha against ZEAMX in %; for plant injury at 320 g/ha: read-out: Post-emergence effect at 320 g/ha against ZEAMX in %. In kind it is in vivo, Zea mays. The method, boiled down:
as §1

Assay [3] concerns BRSNW. It counts as in vivo, Brassica napus. As to conditions: one-leaf stage, rated visually after about 3 weeks vs untreated controls. From the text:
• ALOMY: Alopecurus myosuroides SETVI: Setaria viridis • AVEFA: Avena fatua POLCO: Fallopia convolvulus • AMARE: Amaranthus retroflexus ECHCG: Echinochloa crus-galli • LOLRJ: Lolium rigidum STEME: Stellaria media • VERPE: Veronica persica MATIN: Tripleurospermum inodorum • DIGSA: Digitaria sanguinalis ABUTH: Abutylon threophrasti • TRZAS: Triticum aestivum VIOTR: Viola tricolor • BRSNW: Brassica napus ZEAMX: Zea mays • PHBPU: Ipomoea purpurea GLXMA: Glycine max • ORYSA: Oryza sativa HORMU: Hordeum murinum
Seeds of monocotyledonous and dicotyledonous weeds and crop plants are placed in sandy loam in plastic or organic planting pots, covered with soil and cultivated in a greenhouse under controlled growth conditions. 2 to 3 weeks after sowing, the trial plants are treated at the one-leaf stage. The compounds of the invention, formulated in the form of wettable powders (WP) or as emulsion concentrates (EC), are then sprayed onto the green parts of the plants as aqueous suspension or emulsion with addition of 0.5% additive at a water application rate of 600 l/ha (converted). After the test plants have been kept in the greenhouse under optimum growth conditions for about 3 weeks, the activity of the preparations is rated visually in comparison to untreated controls. For example, 100% activity=the plants have died, 0% activity=like control plants.
Tables 20a to 38c below show the effects/crop compatibilities of selected compounds of the general formula (I) on various harmful plants at an application rate corresponding to 20 to 320 g/ha, which were obtained by the trial procedure specified above.

Assay [4] relates to VIOTR. As to the kind of experiment: Post-emergence herbicidal effect, greenhouse pot test. In kind it is in vivo, Viola tricolor. As to conditions: Viola tricolor, 504 h, 320 g/ha, read-out: Post-emergence effect against VIOTR in %. The method, boiled down: as §1

The structures appear in SMILES notation.

As for `CCOC(Oc1nn(-c2ccccc2F)c(-c2ccc(F)nc2)c1Br)C(=O)O` (racemic) [Example I-51, (2RS)-{[4-Bromo-1-(2-fluorophenyl)-5-(6-fluoropyridin-3-yl)-1H-pyrazol-3-yl]oxy}(ethoxy)acetic acid], the percent crop injury (phytotoxicity) to wheat, post-emergence at 20 g/ha in assay [1] was 0%. In assay [2], the plant injury at 20 g/ha stood at 0%, the plant injury at 80 g/ha turned out to be 0% and the plant injury at 320 g/ha came to 0%. The “Post-emergence effect at 320 g/ha against BRSNW in %” value (“Post-emergence effect … in %” for short) in assay [3] is given as 0%. In assay [4], the pest or weed control at 320 g/ha was 80%.
`CCOC(Oc1nn(-c2ccccc2F)c(-c2ccc(F)nc2)c1Br)C(=O)O` (single isomer, unassigned) [Example I-65, (2R*)-{[4-Bromo-1-(2-fluorophenyl)-5-(6-fluoropyridin-3-yl)-1H-pyrazol-3-yl]oxy}(ethoxy)acetic acid]: the percent crop injury (phytotoxicity) to wheat, post-emergence at 20 g/ha in assay [1] was determined as 0%. Besides, in assay [2], the plant injury at 20 g/ha is 0%, the plant injury at 80 g/ha is 0% and the plant injury at 320 g/ha stood at 0%. Also, the “Post-emergence effect … in %” value in assay [3] is 0%.
On to `COC(Oc1nn(-c2ncccc2F)c(-c2ccc(F)nc2)c1Br)C(=O)O` (stereo not shown) [Example I-45], for which, in assay [1], the percent crop injury (phytotoxicity) to wheat, post-emergence at 20 g/ha is 0%. For the same compound, in assay [2], the plant injury at 20 g/ha came out at 0%, the plant injury at 80 g/ha came out at 0% and the plant injury at 320 g/ha was 0%. In addition, the “Post-emergence effect … in %” value in assay [3] is on record as 0%.
